For eight compounds, EC50, Emax and Ki results are on record in patent publication US9902726B2, “Pyridone-sulfone morphinan analogs as opioid receptor ligands” (Purdue Pharma L.P., priority 2013, dated 2018).

The target of assay [1] is T1, μ-opioid receptor (Homo sapiens (Human), UniProt P35372). The experiment in a line: μ-opioid receptor [35S]GTPγS functional assay, HEK-293 or CHO cells. The settings on record: for Emax: HEK-293 or CHO cells, relative to DAMGO. It counts as biochemical. How it is done:
(§1) μ-Opioid Receptor Functional Assay Procedures: [^35S]GTPγS functional assays were conducted using freshly thawed μ-receptor membranes prepared in-house from a cell line expressing recombinant μ opioid receptor in a HEK-293, CHO, or U-2 OS cell background or purchased from a commercial source (Perkin Elmer, Shelton, Conn.). Assay reactions were prepared by sequentially adding the following reagents to binding buffer (100 mM NaCl, 10 mM MgCl2, 20 mM HEPES, pH 7.4) on ice (final concentrations indicated): membrane protein (0.026 mg/mL), saponin ([…]), GDP ([…]) and [^35S]GTPγS (0.20 nM; Perkin Elmer, Shelton, Conn.). The prepared membrane solution (190 μl/well) was transferred to 96-shallow well polypropylene plates containing 10 μl of 20× concentrated stock solutions of the agonist [D-Ala^2, N-methyl-Phe^4 Gly-ol^5]-enkephalin (DAMGO) prepared in dimethyl sulfoxide (DMSO). Plates were incubated for 30 min at about 25° C. with shaking. […] Data were analyzed using the sigmoidal dose-response curve fitting functions in GraphPad PRISM v. 3.0, or an in-house function for non-linear, sigmoidal dose-response curve-fitting. [^35S]GTPγS functional assays can also be conducted using freshly thawed μ-receptor membranes prepared from a cell line expressing recombinant opioid receptor in a CHO-K1 cell background.
(§2) μ-Opioid Receptor Functional Data: μ GTP EC50 is the concentration of a compound providing 50% of the maximal response for the compound at a μ-opioid receptor.
(§3) μ GTP Emax (%) is the maximal effect elicited by a compound relative to the effect elicited by DAMGO, a standard μ agonist. Generally, the μ GTP Emax (%) value measures the efficacy of a compound to treat or prevent pain or other Conditions.

Assay [2] deals with T2, κ opioid receptor (Homo sapiens (Human), UniProt P41145). Put plainly: κ-opioid receptor [35S]GTPγS functional assay, U-2 OS cells. It counts as biochemical. The settings on record: for Emax: U-2 OS cells, relative to U69,593. How it is done: (§4) κ-Opioid Receptor Functional Assay Procedures: Functional [^35S]GTPγS binding assays were conducted as follows. κ opioid receptor membrane solution was prepared by sequentially adding final concentrations of 0.026 μg/μl κ membrane protein (in-house), 10 μg/mL saponin, 3 μM GDP and 0.20 nM [^35S]GTPγS to binding buffer (100 mM NaCl, 10 mM MgCl2, 20 mM HEPES, pH 7.4) on ice. The prepared membrane solution (190 μl/well) was transferred to 96-shallow well polypropylene plates containing 10 μl of 20× concentrated stock solutions of agonist prepared in DMSO. Plates were incubated for 30 min at a temperature of about 25° C. with shaking.
(§5) κ-Opioid Receptor Functional Data: κ GTP EC50 is the concentration of a compound providing 50% of the maximal response for the compound at a κ receptor.
(§6) κ GTP Emax (%) is the maximal effect elicited by a compound relative to the effect elicited by U69,593.

The target in assay [3] is T1, μ-opioid receptor. The experiment in a line: μ-opioid receptor [35S]GTPγS functional assay, U-2 OS cells. It counts as biochemical. The settings on record: for Emax: U-2 OS cells, relative to DAMGO. As for the experimental part:
as §1, §2, §3

Assay [4] addresses recombinant human kappa opioid receptor (κ) (Homo sapiens (Human), UniProt P41145). The experiment in a line: κ-opioid receptor radioligand dose-displacement binding assay ([3H]-U69,593). How it is done: κ-Opioid Receptor Binding Assay Procedures: Membranes from HEK-293 cells, CHO cells, or U-2 OS cells expressing the recombinant human kappa opioid receptor (κ) were prepared by lysing cells in ice cold hypotonic buffer (2.5 mM MgCl2, 50 mM HEPES, pH 7.4) (10 mL/10 cm dish) followed by homogenization with a tissue grinder/Teflon pestle. Membranes from a cell line naturally expressing kappa opioid receptor can also be used. Membranes were collected by centrifugation at 30,000×g for 15 min at 4° C. and pellets were resuspended in hypotonic buffer to a final concentration of 1-3 mg/mL. Protein concentrations were determined using the BioRad protein assay reagent with bovine serum albumen as standard. Aliquots of κ receptor membranes were stored at −80° C.
Radioligand dose displacement assays used 0.4 nM [^3H]-U69,593 (GE Healthcare, Piscataway, N.J.; 40 Ci/mmole) with 15 μg membrane protein (recombinant κ opioid receptor expressed in HEK 293 cells; in-house prep) in a final volume of 200 μl binding buffer (5% DMSO, 50 mM Trizma base, pH 7.4). Non-specific binding was determined in the presence of 10 μM unlabeled naloxone or U69,593. All reactions were performed in 96-well polypropylene plates for 1 hour at a temperature of about 25° C.

For assay [5], the target named is T2, κ opioid receptor. The experiment in a line: κ-opioid receptor [35S]GTPγS functional assay, HEK-293 or CHO cells. It counts as biochemical. The settings on record: for Emax: HEK-293 or CHO cells, relative to U69,593. As for the experimental part:
as §4, §5, §6

The target of assay [6] is T1, μ-opioid receptor. Put plainly: μ-opioid receptor radioligand dose-displacement binding assay ([3H]-diprenorphine).
Procedure: Radioligand dose-displacement binding assays for μ-opioid receptors used 0.3 nM [^3H]-diprenorphine (Perkin Elmer, Shelton, Conn.), with 5 mg membrane protein/well in a final volume of 500 μl binding buffer (10 mM MgCl2, 1 mM EDTA, 5% DMSO, 50 mM HEPES, pH 7.4). Reactions were carried out in the absence or presence of increasing concentrations of unlabeled naloxone. All reactions were conducted in 96-deep well polypropylene plates for 2 hours at room temperature. Binding reactions were terminated by rapid filtration onto 96-well Unifilter GF/C filter plates (Perkin Elmer, Shelton, Conn.), presoaked in 0.5% polyethylenimine using a 96-well tissue harvester (Perkin Elmer, Shelton, Conn.) followed by performing three filtration washes with 500 μl of ice-cold binding buffer. Filter plates were subsequently dried at 50° C. for 2-3 hours. BetaScint scintillation cocktail (Perkin Elmer, Shelton, Conn.) was added (50 μl/well), and plates were counted using a Packard Top-Count for 1 min/well. The data were analyzed using the one-site competition curve fitting functions in GraphPad PRISM™ v.

At μ-opioid receptor [1], `CS(=O)(=O)c1cc2c([nH]c1=O)C[C@]13CCN(CC4CC4)[C@H](Cc4ccc(O)cc41)[C@@H]3C2` [Compound 9, (6R,6aR,12aS)-15-(cyclopropylmethyl)-2-hydroxy-9-(methylsulfonyl)-6a,7,11,12-tetrahydro-5H-6,12a-(epiminoethano)naphtho[2,1-g]quinolin-10(6H)-one] yielded an EC50 above 20000 nM and an Emax of 2.5%.
For `CN1CC[C@]23Cc4[nH]c(=O)c(S(C)(=O)=O)cc4C[C@@]2(O)[C@H]1Cc1ccc(O)cc13` [Compound 7, (6R,6aS,12aR)-2,6a-dihydroxy-15-methyl-9-(methylsulfonyl)-6a,7,11,12-tetrahydro-5H-6,12a-(epiminoethano)naphtho[2,1-g]quinolin-10(6H)-one], the values for the EC50 on κ opioid receptor [2] and on μ-opioid receptor [3] were 203 ± 47.7 nM and 148 ± 6.21 nM, respectively. Further, the Emax at κ opioid receptor [2] came out at 71.3 ± 3.33%; on μ-opioid receptor [3] it was 68 ± 1.15%.
Consider `CN1CC[C@]23Cc4[nH]c(=O)c(S(=O)(=O)c5ccccc5)cc4C[C@@]2(O)[C@H]1Cc1ccc(O)cc13` [Compound 8, (6R,6aS,12aR)-2,6a-dihydroxy-15-methyl-9-(phenylsulfonyl)-6a,7,11,12-tetrahydro-5H-6,12a-(epiminoethano)naphtho[2,1-g]quinolin-10(6H)-one], for which, at κ opioid receptor [2], the half-maximal effective concentration (EC50) came out at 35.8 ± 3.77 nM and the Emax was found to be 82.3 ± 3.67%. Moreover, the Ki in assay [4] worked out at 19.5 ± 2.69 nM. Moreover, at μ-opioid receptor [3], the EC50 was determined as 77.5 ± 10.9 nM and the Emax came to 61.7 ± 1.67%.
On μ-opioid receptor [1], `CN1CC[C@]23Cc4[nH]c(=O)c(S(=O)(=O)c5ccccc5)cc4C[C@H]2[C@H]1Cc1ccc(O)cc13` [Compound 12, (6R,6aR,12aS)-2-hydroxy-15-methyl-9-(phenylsulfonyl)-6,6a,7,12-tetrahydro-5H-6,12a-(epiminoethano)naphtho[2,1-g]quinolin-10(11H)-one] registered an EC50 of 83.1 ± 24.1 nM and an Emax of 19.8 ± 2.63%. In addition, the Ki in assay [4] turned out to be 2.78 ± 0.75 nM. Besides, on κ opioid receptor [5], the EC50 was found to be 17.2 ± 4.22 nM and the Emax was 17.2 ± 1.04%.
As to `O=c1[nH]c2c(cc1S(=O)(=O)c1ccccc1)C[C@H]1[C@H]3Cc4ccc(O)cc4[C@@]1(CCN3CC1CC1)C2` [Compound 10, (6R,6aR,12aS)-15-(cyclopropylmethyl)-2-hydroxy-9-(phenylsulfonyl)-6a,7,11,12-tetrahydro-5H-6,12a-(epiminoethano)naphtho[2,1-g]quinolin-10(6H)-one], at μ-opioid receptor [1], the EC50 is above 20000 nM and the Emax came to 2%.
For `CS(=O)(=O)c1cc2c([nH]c1=O)C[C@]13CCN(CC4CC4)[C@H](Cc4ccc(O)cc41)[C@]3(O)C2` [Compound 5, (6R,6aS,12aR)-15-(cyclopropylmethyl)-2,6a-dihydroxy-9-(methylsulfonyl)-6a,7,11,12-tetrahydro-5H-6,12a-(epiminoethano)naphtho[2,1-g]quinolin-10(6H)-one], the Ki on μ-opioid receptor [6] amounted to 0.76 ± 0.13 nM; in assay [4], 0.36 ± 0.091 nM. Further, the EC50 was above 20000 nM at μ-opioid receptor [1], 0.85 ± 0.075 nM on κ opioid receptor [2], 1.27 ± 0.3 nM at κ opioid receptor [5] and above 20000 nM at μ-opioid receptor [3]. Further, the Emax on μ-opioid receptor [1] was 1%; on κ opioid receptor [2] it was 55.7 ± 2.4%; on κ opioid receptor [5], 10.3 ± 0.67%; at μ-opioid receptor [3] it was 2%.
Turning to `CN1CC[C@]23Cc4[nH]c(=O)c(S(C)(=O)=O)cc4C[C@H]2[C@H]1Cc1ccc(O)cc13` [Compound 11, (6R,6aR,12aS)-2-hydroxy-15-methyl-9-(methylsulfonyl)-6,6a,7,12-tetrahydro-5H-6,12a-(epiminoethano)naphtho[2,1-g]quinolin-10(11H)-one], on μ-opioid receptor [1], the EC50 stood at 259 ± 53.5 nM and the Emax was 20.7 ± 1.76%. Also, in assay [4], the Ki was 13.1 ± 2.27 nM. On κ opioid receptor [5], this compound showed an EC50 of 107 ± 28.7 nM and an Emax of 16.7 ± 1.21%.
Take `O=c1[nH]c2c(cc1S(=O)(=O)c1ccccc1)C[C@@]1(O)[C@H]3Cc4ccc(O)cc4[C@@]1(CCN3CC1CC1)C2` [Compound 6, (6R,6aS,12aR)-15-(cyclopropylmethyl)-2,6a-dihydroxy-9-(phenylsulfonyl)-6a,7,11,12-tetrahydro-5H-6,12a-(epiminoethano)naphtho[2,1-g]quinolin-10(6H)-one]: on κ opioid receptor [2], it took 0.26 ± 0.055 nM to reach a half-maximal effect (EC50) and the Emax came out at 33.2 ± 2.84%. At μ-opioid receptor [3], this compound yielded an EC50 above 20000 nM and an Emax of 2%.
